# Legend:
# [1] = target: GST-tagged truncated LRRK2 (Homo sapiens (Human), UniProt Q5S007); assay: LRRK2 Lantha Screen kinase assay; type: biochemical; conditions: geometric mean of 2-5 determinations unless otherwise indicated (a: >=6 determinations; b: single determination); read-out: LRRK2 WT IC50
# Experimental: LRRK2 kinase activity was measured using Lantha Screen technology from Invitrogen. GST-tagged truncated LRRK2 from Invitrogen (Cat # PV4874) was incubated with a fluorescein-labeled peptide substrate based upon ezrin/radixin/moesin (ERM), also known as LRRKtide (Invitrogen cat #PR8976A), in the presence of a dose response of compound. Upon completion, the assay was stopped and detected with a terbium labeled anti-phospho-ERM antibody (Invitrogen, cat #PR8975A). […] Aliquots (3.5 μL) of the 100% DMSO dose response were mixed with 46.5 μL water then 1 μL of this mixture was added to the 3 μL substrate mix in the 384-well plate. The kinase reaction was started with 3 μL of a working solution of LRRK2 enzyme at a concentration of 4 μg/mL. […] The reaction was allowed to progress at room temperature for two hours and then stopped with the addition of 7 μL of detection buffer (20 mM Tris pH 7.6, 0.01% NP-40, 0.02% NaN3, 6 mM EDTA with 2 nM terbium labeled anti-phospho-ERM).
# CaMK2g = CaMK2g (Homo sapiens (Human), UniProt Q13555); assay: ActivX kinase probe assay (human PBMC); type: binding; conditions: read-out: percent inhibition
# CDC2 = CDC2 (Homo sapiens (Human), UniProt P06493); assay: ActivX kinase probe assay (human PBMC); type: binding; conditions: read-out: percent inhibition
# CDK2 = CDK2 (Homo sapiens (Human), UniProt P24941); assay: ActivX kinase probe assay (human PBMC); type: binding; conditions: read-out: percent inhibition
# eEF2K = eEF2K (Homo sapiens (Human), UniProt O00418); assay: ActivX kinase probe assay (human PBMC); type: binding; conditions: read-out: percent inhibition
# Erk5 = Erk5 (Homo sapiens (Human), UniProt Q13164); assay: ActivX kinase probe assay (human PBMC); type: binding; conditions: read-out: percent inhibition
# FES = FES (Homo sapiens (Human), UniProt P07332); assay: ActivX kinase probe assay (human PBMC); type: binding; conditions: read-out: percent inhibition
# GCK = GCK (Homo sapiens (Human), UniProt Q12851); assay: ActivX kinase probe assay (human PBMC); type: binding; conditions: read-out: percent inhibition
# GSK3B = GSK3B (Homo sapiens (Human), UniProt P49841); assay: ActivX kinase probe assay (human PBMC); type: binding; conditions: read-out: percent inhibition
# JAK1 domain2 = JAK1 domain2 (Homo sapiens (Human), UniProt P23458); assay: ActivX kinase probe assay (human PBMC); type: binding; conditions: read-out: percent inhibition
# JNK1, JNK2, JNK3 = assay: ActivX kinase probe assay (human PBMC); type: binding
# LRRK2 = LRRK2 (Homo sapiens (Human), UniProt Q5S007); assay: ActivX kinase probe assay (human PBMC); type: binding; conditions: read-out: percent inhibition
# MAP2K1 = MAP2K1 (Homo sapiens (Human), UniProt Q02750); assay: ActivX kinase probe assay (human PBMC); type: binding; conditions: read-out: percent inhibition
# MLK3 = MLK3 (Homo sapiens (Human), UniProt Q16584); assay: ActivX kinase probe assay (human PBMC); type: binding; conditions: read-out: percent inhibition
# NDR1 = NDR1 (Homo sapiens (Human), UniProt Q15208); assay: ActivX kinase probe assay (human PBMC); type: binding; conditions: read-out: percent inhibition
# NDR2 = NDR2 (Homo sapiens (Human), UniProt Q9Y2H1); assay: ActivX kinase probe assay (human PBMC); type: binding; conditions: read-out: percent inhibition
# NEK9 = NEK9 (Homo sapiens (Human), UniProt Q8TD19); assay: ActivX kinase probe assay (human PBMC); type: binding; conditions: read-out: percent inhibition
# NuaK2 = NuaK2 (Homo sapiens (Human), UniProt Q9H093); assay: ActivX kinase probe assay (human PBMC); type: binding; conditions: read-out: percent inhibition
# PAN3 = PAN3 (Homo sapiens (Human), UniProt Q58A45); assay: ActivX kinase probe assay (human PBMC); type: binding; conditions: read-out: percent inhibition
# PIK3C3 = PIK3C3 (Homo sapiens (Human), UniProt Q8NEB9); assay: ActivX kinase probe assay (human PBMC); type: binding; conditions: read-out: percent inhibition
# PIK3CG = PIK3CG (Homo sapiens (Human), UniProt P48736); assay: ActivX kinase probe assay (human PBMC); type: binding; conditions: read-out: percent inhibition
# RIPK3 = RIPK3 (Homo sapiens (Human), UniProt Q9Y572); assay: ActivX kinase probe assay (human PBMC); type: binding; conditions: read-out: percent inhibition
# RSK1, RSK2, RSK3 domain1 = assay: ActivX kinase probe assay (human PBMC); type: binding
# RSK2 domain2 = RSK2 domain2 (Homo sapiens (Human), UniProt P51812); assay: ActivX kinase probe assay (human PBMC); type: binding; conditions: read-out: percent inhibition
# RSKL1 domain1 = RSKL1 domain1 (Homo sapiens (Human), UniProt Q96S38); assay: ActivX kinase probe assay (human PBMC); type: binding; conditions: read-out: percent inhibition
# SLK = SLK (Homo sapiens (Human), UniProt Q9H2G2); assay: ActivX kinase probe assay (human PBMC); type: binding; conditions: read-out: percent inhibition
# SMG1 = SMG1 (Homo sapiens (Human), UniProt Q96Q15); assay: ActivX kinase probe assay (human PBMC); type: binding; conditions: read-out: percent inhibition
# SRC = SRC (Homo sapiens (Human), UniProt P12931); assay: ActivX kinase probe assay (human PBMC); type: binding; conditions: read-out: percent inhibition
# TBK1 = TBK1 (Homo sapiens (Human), UniProt Q9UHD2); assay: ActivX kinase probe assay (human PBMC); type: binding; conditions: read-out: percent inhibition
# TLK1 = TLK1 (Homo sapiens (Human), UniProt Q9UKI8); assay: ActivX kinase probe assay (human PBMC); type: binding; conditions: read-out: percent inhibition
# ULK3 = ULK3 (Homo sapiens (Human), UniProt Q6PHR2); assay: ActivX kinase probe assay (human PBMC); type: binding; conditions: read-out: percent inhibition
# Wnk1, Wnk2, Wnk3 = assay: ActivX kinase probe assay (human PBMC); type: binding
# Wnk1, Wnk2, Wnk4 = assay: ActivX kinase probe assay (human PBMC); type: binding
# ZAP70 = ZAP70 (Homo sapiens (Human), UniProt P43403); assay: ActivX kinase probe assay (human PBMC); type: binding; conditions: read-out: percent inhibition
# PIK3C3, sequence (Q8NEB9 whole entry): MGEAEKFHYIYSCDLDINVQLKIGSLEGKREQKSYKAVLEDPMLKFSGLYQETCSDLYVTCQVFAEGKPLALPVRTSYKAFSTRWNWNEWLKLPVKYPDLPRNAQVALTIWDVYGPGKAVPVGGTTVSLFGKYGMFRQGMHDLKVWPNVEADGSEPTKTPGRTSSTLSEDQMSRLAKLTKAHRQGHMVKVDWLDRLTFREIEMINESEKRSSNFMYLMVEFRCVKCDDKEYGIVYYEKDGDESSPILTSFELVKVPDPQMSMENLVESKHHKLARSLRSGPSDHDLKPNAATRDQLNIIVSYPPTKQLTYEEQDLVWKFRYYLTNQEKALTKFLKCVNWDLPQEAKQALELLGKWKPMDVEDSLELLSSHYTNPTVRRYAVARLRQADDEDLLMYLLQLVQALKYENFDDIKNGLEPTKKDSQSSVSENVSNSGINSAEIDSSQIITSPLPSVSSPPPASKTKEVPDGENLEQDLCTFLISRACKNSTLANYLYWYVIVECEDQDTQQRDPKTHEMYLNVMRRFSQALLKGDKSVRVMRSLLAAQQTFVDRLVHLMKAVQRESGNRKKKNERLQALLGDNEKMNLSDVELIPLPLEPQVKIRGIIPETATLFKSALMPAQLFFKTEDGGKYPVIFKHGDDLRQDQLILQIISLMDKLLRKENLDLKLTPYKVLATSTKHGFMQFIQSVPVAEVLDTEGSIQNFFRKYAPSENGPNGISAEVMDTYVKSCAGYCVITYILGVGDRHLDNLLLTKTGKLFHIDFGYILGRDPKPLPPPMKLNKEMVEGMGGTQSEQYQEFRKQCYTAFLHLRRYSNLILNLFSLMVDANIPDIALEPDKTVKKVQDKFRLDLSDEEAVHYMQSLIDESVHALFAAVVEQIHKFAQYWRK
# MLK3, sequence (Q16584 whole entry): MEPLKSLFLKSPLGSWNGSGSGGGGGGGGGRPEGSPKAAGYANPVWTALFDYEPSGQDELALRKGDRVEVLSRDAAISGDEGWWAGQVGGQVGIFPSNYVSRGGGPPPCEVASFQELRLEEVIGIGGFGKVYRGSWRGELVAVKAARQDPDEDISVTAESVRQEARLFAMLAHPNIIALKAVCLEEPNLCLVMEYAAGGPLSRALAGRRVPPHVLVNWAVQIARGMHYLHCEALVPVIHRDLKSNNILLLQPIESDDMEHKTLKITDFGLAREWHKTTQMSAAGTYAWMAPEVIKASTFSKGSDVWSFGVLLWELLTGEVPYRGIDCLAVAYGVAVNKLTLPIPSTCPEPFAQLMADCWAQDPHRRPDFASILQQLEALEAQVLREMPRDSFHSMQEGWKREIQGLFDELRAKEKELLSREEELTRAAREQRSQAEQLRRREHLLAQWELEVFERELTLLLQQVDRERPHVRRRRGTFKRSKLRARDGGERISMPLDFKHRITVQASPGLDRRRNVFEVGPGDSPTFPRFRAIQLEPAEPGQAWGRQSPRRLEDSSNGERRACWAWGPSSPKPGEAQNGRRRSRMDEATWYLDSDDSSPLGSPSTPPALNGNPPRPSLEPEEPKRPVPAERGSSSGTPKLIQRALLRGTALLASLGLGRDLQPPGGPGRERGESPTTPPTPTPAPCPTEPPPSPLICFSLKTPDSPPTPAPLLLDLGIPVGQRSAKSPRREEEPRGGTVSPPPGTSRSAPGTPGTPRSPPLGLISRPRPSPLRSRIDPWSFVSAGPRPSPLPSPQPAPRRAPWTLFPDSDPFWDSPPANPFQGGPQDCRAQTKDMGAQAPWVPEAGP
# TLK1, sequence (Q9UKI8 whole entry): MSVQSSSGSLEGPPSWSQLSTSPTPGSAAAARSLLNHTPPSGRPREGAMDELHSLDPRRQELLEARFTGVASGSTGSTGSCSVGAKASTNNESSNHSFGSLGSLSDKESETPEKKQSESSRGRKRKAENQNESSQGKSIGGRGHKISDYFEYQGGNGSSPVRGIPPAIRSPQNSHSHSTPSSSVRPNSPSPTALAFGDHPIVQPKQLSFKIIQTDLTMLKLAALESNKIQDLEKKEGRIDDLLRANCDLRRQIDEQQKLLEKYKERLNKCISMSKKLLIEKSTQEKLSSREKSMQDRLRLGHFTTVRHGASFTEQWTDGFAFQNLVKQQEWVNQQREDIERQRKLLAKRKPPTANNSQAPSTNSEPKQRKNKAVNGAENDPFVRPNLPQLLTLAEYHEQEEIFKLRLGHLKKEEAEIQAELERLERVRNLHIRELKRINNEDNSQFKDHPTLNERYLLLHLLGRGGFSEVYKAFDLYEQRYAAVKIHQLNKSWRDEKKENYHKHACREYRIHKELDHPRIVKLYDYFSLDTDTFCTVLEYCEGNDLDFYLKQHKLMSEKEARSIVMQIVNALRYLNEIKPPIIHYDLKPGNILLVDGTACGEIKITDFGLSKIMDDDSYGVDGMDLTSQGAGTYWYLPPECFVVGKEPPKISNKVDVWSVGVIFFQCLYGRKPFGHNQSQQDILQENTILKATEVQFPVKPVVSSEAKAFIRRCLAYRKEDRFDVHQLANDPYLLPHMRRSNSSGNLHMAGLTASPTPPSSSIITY
# PIK3CG, sequence (P48736 whole entry): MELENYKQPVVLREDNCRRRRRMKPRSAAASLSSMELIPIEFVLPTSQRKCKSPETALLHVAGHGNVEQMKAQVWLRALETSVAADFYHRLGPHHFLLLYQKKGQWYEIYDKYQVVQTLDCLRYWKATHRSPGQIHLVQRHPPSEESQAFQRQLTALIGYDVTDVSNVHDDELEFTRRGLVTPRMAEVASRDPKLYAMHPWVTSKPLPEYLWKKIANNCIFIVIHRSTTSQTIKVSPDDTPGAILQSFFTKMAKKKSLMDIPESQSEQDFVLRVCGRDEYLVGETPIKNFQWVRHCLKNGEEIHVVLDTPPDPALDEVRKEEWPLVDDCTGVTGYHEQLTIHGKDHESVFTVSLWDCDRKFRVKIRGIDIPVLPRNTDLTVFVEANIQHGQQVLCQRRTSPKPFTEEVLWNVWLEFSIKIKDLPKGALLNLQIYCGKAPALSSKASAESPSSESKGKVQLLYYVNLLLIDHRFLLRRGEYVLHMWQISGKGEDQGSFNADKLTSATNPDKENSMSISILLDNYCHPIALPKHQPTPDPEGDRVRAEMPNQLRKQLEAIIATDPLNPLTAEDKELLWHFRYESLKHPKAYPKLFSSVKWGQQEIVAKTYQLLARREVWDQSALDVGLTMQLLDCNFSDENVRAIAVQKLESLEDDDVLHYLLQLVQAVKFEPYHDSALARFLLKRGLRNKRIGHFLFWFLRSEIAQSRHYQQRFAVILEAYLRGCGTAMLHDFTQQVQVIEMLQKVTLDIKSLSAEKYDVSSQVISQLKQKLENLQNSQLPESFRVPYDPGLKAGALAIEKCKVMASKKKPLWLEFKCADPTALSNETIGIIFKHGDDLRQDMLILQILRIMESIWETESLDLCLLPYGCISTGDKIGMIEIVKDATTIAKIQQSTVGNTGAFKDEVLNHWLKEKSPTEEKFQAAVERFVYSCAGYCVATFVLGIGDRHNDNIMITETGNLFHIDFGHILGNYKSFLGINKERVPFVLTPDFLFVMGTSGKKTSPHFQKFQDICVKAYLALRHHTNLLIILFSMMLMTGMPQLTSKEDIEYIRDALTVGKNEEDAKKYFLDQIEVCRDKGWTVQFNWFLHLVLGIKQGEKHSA
# CaMK2g, sequence (Q13555 whole entry): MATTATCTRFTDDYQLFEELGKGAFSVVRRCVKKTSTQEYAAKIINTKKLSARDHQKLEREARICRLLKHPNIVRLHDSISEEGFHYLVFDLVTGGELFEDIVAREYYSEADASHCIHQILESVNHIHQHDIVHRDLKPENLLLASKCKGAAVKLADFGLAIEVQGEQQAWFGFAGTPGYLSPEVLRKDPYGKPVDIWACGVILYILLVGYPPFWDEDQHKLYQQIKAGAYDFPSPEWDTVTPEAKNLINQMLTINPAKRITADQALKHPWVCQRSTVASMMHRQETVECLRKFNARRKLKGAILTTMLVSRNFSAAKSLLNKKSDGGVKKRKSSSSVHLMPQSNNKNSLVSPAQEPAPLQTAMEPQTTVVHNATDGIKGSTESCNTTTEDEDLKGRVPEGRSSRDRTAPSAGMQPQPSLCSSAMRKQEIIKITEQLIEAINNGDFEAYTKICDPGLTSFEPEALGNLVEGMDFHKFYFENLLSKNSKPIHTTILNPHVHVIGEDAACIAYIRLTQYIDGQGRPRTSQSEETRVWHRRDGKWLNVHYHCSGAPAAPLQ
# FES, sequence (P07332 whole entry): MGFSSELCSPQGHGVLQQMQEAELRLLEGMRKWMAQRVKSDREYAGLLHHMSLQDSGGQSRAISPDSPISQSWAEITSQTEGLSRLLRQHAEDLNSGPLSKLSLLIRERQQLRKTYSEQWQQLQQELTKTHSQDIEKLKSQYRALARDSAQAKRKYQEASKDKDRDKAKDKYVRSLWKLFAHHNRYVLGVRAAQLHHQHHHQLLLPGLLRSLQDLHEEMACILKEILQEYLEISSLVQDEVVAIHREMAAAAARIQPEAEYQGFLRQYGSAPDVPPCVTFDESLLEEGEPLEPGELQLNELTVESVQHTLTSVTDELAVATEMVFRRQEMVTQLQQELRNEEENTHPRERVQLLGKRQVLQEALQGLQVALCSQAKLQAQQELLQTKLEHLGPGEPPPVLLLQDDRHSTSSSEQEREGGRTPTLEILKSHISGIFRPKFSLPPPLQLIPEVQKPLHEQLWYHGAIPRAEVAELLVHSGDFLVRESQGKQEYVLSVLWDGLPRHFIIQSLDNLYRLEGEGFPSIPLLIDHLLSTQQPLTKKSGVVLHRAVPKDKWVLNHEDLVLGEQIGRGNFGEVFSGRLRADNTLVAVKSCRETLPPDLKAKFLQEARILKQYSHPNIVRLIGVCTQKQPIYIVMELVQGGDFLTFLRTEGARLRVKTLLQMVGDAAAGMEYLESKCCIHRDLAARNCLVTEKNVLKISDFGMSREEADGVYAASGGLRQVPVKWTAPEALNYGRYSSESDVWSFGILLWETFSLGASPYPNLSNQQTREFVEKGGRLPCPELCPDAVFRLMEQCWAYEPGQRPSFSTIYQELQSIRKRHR
smiles,measurement,setting,value
"N#Cc1cccc(-c2c[nH]c3ncnc(N4CCOCC4)c23)c1 [Example 4, 3-[4-(Morpholin-4-yl)-7H-pyrrolo[2,3-d]pyrimidin-5-yl]benzonitrile]",IC50,[1],3 nM
same,inhibition at 0.1 µM,CaMK2g,-13.6%
same,inhibition at 1 µM,CaMK2g,2.9%
same,inhibition at 0.1 µM,CDC2,-6.7%
same,inhibition at 1 µM,CDC2,12.9%
same,inhibition at 0.1 µM,CDK2,11%
same,inhibition at 1 µM,CDK2,9.2%
same,inhibition at 0.1 µM,eEF2K,-27.1%
same,inhibition at 1 µM,eEF2K,2.8%
same,inhibition at 0.1 µM,Erk5,-5%
same,inhibition at 1 µM,Erk5,-6.3%
same,inhibition at 0.1 µM,FES,-9.2%
same,inhibition at 1 µM,FES,6.9%
same,inhibition at 0.1 µM,GCK,3.6%
same,inhibition at 1 µM,GCK,31.2%
same,inhibition at 0.1 µM,GSK3B,-3.7%
same,inhibition at 1 µM,GSK3B,6.7%
same,inhibition at 0.1 µM,JAK1 domain2,-6.2%
same,inhibition at 1 µM,JAK1 domain2,18.9%
same,percent inhibition,"JNK1, JNK2, JNK3; 0.1 μM",−5.3%
same,percent inhibition,"JNK1, JNK2, JNK3; 1 μM",5.4%
same,inhibition at 0.1 µM,LRRK2; 0.1 μM,79.9%
same,inhibition at 1 µM,LRRK2; 1 μM,94.1%
same,inhibition at 0.1 µM,MAP2K1,-17.2%
same,inhibition at 1 µM,MAP2K1,14%
same,inhibition at 0.1 µM,MLK3,-14.1%
same,inhibition at 1 µM,MLK3,19.9%
same,inhibition at 0.1 µM,NDR1,-4.4%
same,inhibition at 1 µM,NDR1,1.7%
same,inhibition at 0.1 µM,NDR2,-18.7%
same,inhibition at 1 µM,NDR2,22.1%
same,inhibition at 0.1 µM,NEK9,-7.1%
same,inhibition at 1 µM,NEK9,1%
same,inhibition at 0.1 µM,NuaK2,-11.9%
same,inhibition at 1 µM,NuaK2,18.1%
same,inhibition at 0.1 µM,PAN3,-0.2%
same,inhibition at 1 µM,PAN3,15.1%
same,inhibition at 0.1 µM,PIK3C3,-2.4%
same,inhibition at 1 µM,PIK3C3,13.6%
same,inhibition at 0.1 µM,PIK3CG,-20.4%
same,inhibition at 1 µM,PIK3CG,-5.6%
same,inhibition at 0.1 µM,RIPK3,-3.2%
same,inhibition at 1 µM,RIPK3,8%
same,percent inhibition,"RSK1, RSK2, RSK3 domain1; 0.1 μM",−0.4%
same,percent inhibition,"RSK1, RSK2, RSK3 domain1; 1 μM",13.4%
same,inhibition at 0.1 µM,RSK2 domain2,-10%
same,inhibition at 1 µM,RSK2 domain2,21.4%
same,inhibition at 0.1 µM,RSKL1 domain1,1.1%
same,inhibition at 1 µM,RSKL1 domain1,-1.8%
same,inhibition at 0.1 µM,SLK,10.5%
same,inhibition at 1 µM,SLK,60.7%
same,inhibition at 0.1 µM,SMG1,-2.5%
same,inhibition at 1 µM,SMG1,13%
same,inhibition at 0.1 µM,SRC,-18.3%
same,inhibition at 1 µM,SRC,-2.2%
same,inhibition at 0.1 µM,TBK1,7.3%
same,inhibition at 1 µM,TBK1,16.4%
same,inhibition at 0.1 µM,TLK1,-4.6%
same,inhibition at 1 µM,TLK1,-3.7%
same,inhibition at 0.1 µM,ULK3,3.1%
same,inhibition at 1 µM,ULK3,5.2%
same,percent inhibition,"Wnk1, Wnk2, Wnk3; 0.1 μM",1.7%
same,percent inhibition,"Wnk1, Wnk2, Wnk3; 1 μM",−6%
same,percent inhibition,"Wnk1, Wnk2, Wnk4; 0.1 μM",−1.9%
same,percent inhibition,"Wnk1, Wnk2, Wnk4; 1 μM",−1.3%
same,inhibition at 0.1 µM,ZAP70,-4.9%
same,inhibition at 1 µM,ZAP70,6.8%

# From patent US9156845B2, “4-(substituted amino)-7H-pyrrolo[2,3-d] pyrimidines as LRRK2 inhibitors” (Pfizer Inc., priority 2012, dated 2015)
